Earlier results in patent US20070166380A1, “ZOLPIDEM TABLETS” (priority 2005, published 2007).

Conditions: after ingestion of the tablet

In the case of `Cc1ccc(-c2nc3ccc(C)cn3c2CC(=O)N(C)C)cc1` [zolpidem, N,N,6-trimethyl-2-(4-methylphenyl)-imidazo [1,2-s]pyridine-3-acetamide], the “time until zolpidem starts acting” value ('or less') is given as 15 to 30 min and the duration of action (approximately) is given as 4 to 6 h.
